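These data come from cells grown in 96-well plates and exposed to compound for 48 hours at five concentrations. GI50 = concentration required for 50% inhibition of growth. The concentration for full growth arrest is given as TGI.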 Where a SMILES comes first, the peptide text is derived from it. The star is where a group is joined. Trt = c1ccc(C(c2ccccc2)(c2ccccc2)*)cc1; Cbz = O=C(OCc1ccccc1)*
Experiments:
Experiment in all cases: inhibition of tumour cell growth, NCI panel, 48 h
HOP-92 NSCLC = system: HOP-92 NSCLC
OVCAR-3 ovarian = system: OVCAR-3 ovarian
HCT-116 colon = system: HCT-116 colon
SK-MEL-2 melanoma = system: SK-MEL-2 melanoma
HCC-2998 colon = system: HCC-2998 colon
COLO 205 colon = system: COLO 205 colon
UO-31 renal = system: UO-31 renal
U251 CNS = system: U251 CNS
SK-OV-3 ovarian = system: SK-OV-3 ovarian
SR leukemia = system: SR leukemia

| Compound | GI50 (HOP-92 NSCLC) [µM] | TGI (HOP-92 NSCLC) [µM] | GI50 (OVCAR-3 ovarian) [µM] | TGI (OVCAR-3 ovarian) [µM] | GI50 (HCT-116 colon) [µM] | TGI (HCT-116 colon) [µM] | GI50 (SK-MEL-2 melanoma) [µM] | TGI (SK-MEL-2 melanoma) [µM] | GI50 (HCC-2998 colon) [µM] | TGI (HCC-2998 colon) [µM] | GI50 (COLO 205 colon) [µM] | TGI (COLO 205 colon) [µM] | GI50 (UO-31 renal) [µM] | TGI (UO-31 renal) [µM] | GI50 (U251 CNS) [µM] | TGI (U251 CNS) [µM] | GI50 (SK-OV-3 ovarian) [µM] | TGI (SK-OV-3 ovarian) [µM] | TGI (SR leukemia) [µM] | GI50 (SR leukemia) [µM] |
| --- | --- | --- | --- | --- | --- | --- | --- | --- | --- | --- | --- | --- | --- | --- | --- | --- | --- | --- | --- | --- |
| COc1cccc2c1cc1c3c(cc4c(c32)OCO4)C(=O)N1 | 1.71 | 6.98 | 2.5 | 5.58 | 3.63 | 13.2 | 16.5 | 44.2 | 7.82 | > 100 | 2.3 | 5.39 | 3.47 | 28.9 | 5.78 | 21.1 | 13.6 | 48.9 |  |  |
| Cn1nc(-c2ccccc2)c(C(=O)/C=C/c2ccc(Cl)cc2)c(N2CCCC2)c1=O |  | 6.94 |  |  |  | 8.11 |  |  |  |  |  | 4.07 |  | 21.5 |  | 15.5 |  | 18.8 |  |  |
| Cc1ccc2nc(NC(=O)C(=O)CC(=O)c3cccc4ccccc34)sc2c1 |  | 69.9 |  | 49.6 |  |  |  | > 100 |  | > 100 |  | > 100 |  | > 100 |  | 49.7 |  | 36.6 |  |  |
| COC(=O)C(=O)C(C(=O)C(=O)Nc1cc(Cl)c(Cl)cc1Cl)c1nc2ccc([N+](=O)[O-])cc2[nH]c1=O (stereo not drawn) |  |  |  |  |  | > 100 |  | > 100 |  | > 100 |  | > 100 |  | > 100 |  | > 100 |  | > 100 | > 100 |  |
| CC(=O)[C-](C(C)=O)c1ccccc1.CC(=O)[C-](C(C)=O)c1ccccc1.CC(=O)[C-](C(C)=O)c1ccccc1.[Cl-].[Zr+4] | 44.5 | > 100 | > 100 | > 100 | > 100 | > 100 | > 100 | > 100 |  |  | > 100 | > 100 | > 100 | > 100 | 58 | > 100 | > 100 | > 100 |  |  |
| O=C(Nc1nc2ccccc2s1)c1cc(-c2ccc(F)cc2)n2nc(-c3ccccc3)cc2n1 | 1.69 | 5.06 |  |  | 2.71 | > 100 | 3.15 | 8.97 | > 100 | > 100 |  |  |  |  |  |  | 2.3 | 5.56 | 12.8 | 3.93 |
| CCc1cc(Cc2ccc(C)c(NC(=O)C(=O)C3C(=O)NC(=O)NC3=O)c2CC)cc(C)c1NC(=O)C(=O)C1C(=O)NC(=O)NC1=O |  |  |  | > 100 |  | > 100 |  | > 100 |  | > 100 |  | > 100 |  | > 100 |  | > 100 |  | > 100 |  |  |
| S=c1c2ccccc2c(=S)n2n1CC=CC2 |  | > 100 |  | > 100 |  | > 100 |  | > 100 |  | > 100 |  | > 100 |  | > 100 |  | > 100 |  | > 100 |  |  |
| COC(=O)C(CSC(c1ccccc1)(c1ccccc1)c1ccccc1)NC(=O)C(CC(N)=O)NC(=O)OCc1ccccc1 (stereo not drawn) (Cbz-Asn-Cys(Trt)-OMe; configuration not given here) | 2.64 | 14.9 | 1.78 | 4.67 | 2.79 | 10.7 | 2.12 | 5.49 | 2.03 | 4.82 | 1.64 | 3.4 | 8.88 | 21.2 | 5.87 | 18.5 | 2.42 | 10.2 |  |  |
| CCOC(=O)CC(NC(=O)c1ccc(N=NN(C)C)cc1)C(=O)OCC (stereo not drawn) |  |  |  | > 100 |  | > 100 |  | > 100 |  | > 100 |  | > 100 |  | > 100 |  | > 100 |  | > 100 | > 100 |  |
| COc1ccc(C(=O)c2cc3c(N)c(C(=O)Nc4cccc(OC)c4)sc3nc2C)cc1 | 2.39 | > 100 |  |  | 0.368 | > 100 | > 100 | > 100 | 2.2 | > 100 | 1 | > 59 | 1.14 | > 100 | 0.55 | > 100 |  | > 100 |  | 0.203 |
| COc1ccc(NC(=O)C2C(=O)N(c3ccc(OC)cc3)C(=O)/C2=N\NC(N)=O)cc1 (stereo not drawn) |  | 84.9 |  | > 100 |  | 46.8 |  | > 100 |  | > 100 |  | > 100 |  | 80.8 |  | 35.4 |  | 49 |  |  |
| CCCCNC1=C(C(=O)OCC)/C(=N/NC(=O)c2ccccc2O)CO1 |  |  |  | > 100 |  | > 100 |  | > 100 |  | > 100 |  | > 100 |  | 28.1 |  | > 100 |  | > 100 |  |  |
| NNC(=O)C(O)C(O)C(=O)NN (stereo not drawn) |  |  |  | > 100 |  | > 100 |  | > 100 |  | > 100 |  | > 100 |  | > 100 |  | > 100 |  | > 100 | > 100 |  |
| O=C1C=Cc2ncccc2C1=O |  | 42.5 |  | 46.9 |  | 31.1 |  | 39.2 |  | > 61.6 |  | 32.5 |  | > 57.7 |  | > 57.8 |  | > 61.7 |  |  |
| O=C(/C=C/c1ccccc1)CCC1C(=O)NC(=S)NC1=O |  | > 100 |  | > 100 |  | > 100 |  | > 100 |  | > 100 |  | > 100 |  | > 100 |  | > 100 |  | > 100 |  |  |
| COc1cc(/C=N/NC(=O)c2ccccc2Nc2cccc(C(F)(F)F)c2)cc(OC)c1OC |  |  | 0.797 | 2.33 | 2.48 | 6.4 | 9.63 | 33.2 | 5.29 | 15.6 | 2.72 | 9.87 | 6.11 | 21.5 | 2.28 | 6.03 | 2.92 | 8.44 | 4.16 | 1.3 |
| COc1cc2c(cc1OCCCOc1ccc(-c3nc4ccc(N5CCN(C)CC5)cc4[nH]3)cc1)N=C[C@@H]1CCCN1C2=O |  |  | < 0.01 | < 0.01 | < 0.01 | > 37 | < 0.01 | < 0.01 |  |  | < 0.01 | > 100 |  |  | < 0.01 | 5.07 | < 0.01 | 22.8 | < 0.01 | < 0.01 |
| CC1=CC(=O)NP(=O)(C23CC4CC(CC(C4)C2)C3)N1 (stereo not drawn) |  | > 100 |  | > 100 |  | > 100 |  | > 100 |  |  |  | > 100 |  | > 100 |  | > 100 |  | > 100 | > 100 |  |
